This note sets out measurements from patent US8501950B2, “N-cyanoalkylanthranilamides as insecticides” (Syngenta Crop Protection LLC, priority 2006, dated 2013).

Structures are written as SMILES. Like-named read-outs stand apart in the source and are kept apart here.

Data set [1] relates to Spodoptera littoralis (Cotton Leafworm). Kind of data set: Example B9: systemic insecticide test for Spodoptera littoralis, maize seedlings at 12.5 ppm. The format is in vivo. The protocol: (§1) Systemic Insecticide Test for Spodoptera littoralis (Cotton Leafworm)
[…] Seedlings are allowed to grow for six days. Subsequently leaves are cut and placed in a Petri dish (5 cm diameter), inoculated with twelve to fifteen 1st instar S. littoralis larvae and incubated for four days in a growth chamber (25° C., 50% r.h., 18:6 L:D photo period). Number of alive insects are counted and percentage of dead calculated. Tests were conducted with one replicate.

For data set [2], the system named is Heliothis virescens (Tobacco Budworm). Put plainly: Example B2: activity against Heliothis virescens, eggs on artificial diet. The format is in vivo. The following applies: 96 h. The protocol: Activity Against Heliothis virescens (Tobacco Budworm)
Eggs (0-24 h old) are placed in 24-well microtiter plate on artificial diet and sprayed with test solutions. After an incubation period of 4 days, samples are checked for egg mortality, larval mortality, and growth inhibition.

For data set [3], the system named is Diabrotica balteata (Corn Root Worm). Kind of data set: Example B4: activity against Diabrotica balteata, L2 larvae on artificial diet. It counts as in vivo. Conditions: 120 h, 5 days incubation, read-out: activity (sentence prints only 'over 80%'). Here is the method:
Activity Against Diabrotica balteata (Corn Root Worm)
24-well microtiter plate (MTP) with artificial diet is sprayed with test solutions. After drying, the MTP's are infested with larvae (L2)(6-10 per well). After an incubation period of 5 days, samples are checked for larval mortality, antifeedant and growth inhibition.

Data set [4] concerns Plutella xvlostella (Diamond Back Moth). Kind of data set: Example B3: activity against Plutella xylostella, L2 larvae on artificial diet. The format is in vivo. Conditions: 120 h. The protocol: Activity Against Plutella xvlostella (Diamond Back Moth)
24-well microtiter plate (MTP) with artificial diet is sprayed with test solutions. After drying, the MTP's are infested with larvae (L2)(10-15 per well). After an incubation period of 5 days, samples are checked for larval mortality, antifeedant and growth inhibition.

Data set [5] deals with Spodoptera littoralis (Egyptian Cotton Leafworm). Kind of data set: Example B1: activity against Spodoptera littoralis, sprayed cotton leaf discs, L1 larvae. The format is in vivo. The following applies: foliar, 72 h. From the text:
Activity Against Spodoptera littoralis (Egyptian Cotton Leafworm)
Cotton leaf discs are placed on agar in a 24-well microtiter plate and sprayed with test solutions. After drying, the leaf discs are infested with 5 L1 larvae. The samples are checked for mortality, repellent effect, feeding behaviour, and growth inhibition 3 days after treatment (DAT).

For data set [6], the system named is Spodoptera littoralis (Cotton Leafworm). Kind of data set: Example B11: systemic insecticide test for Spodoptera littoralis, comparison with prior art. It counts as in vivo. The following applies: for mortality at 0.0125 ppm / mortality at 0.05 ppm: Spodoptera littoralis, 120 h, read-out: Mortality (%) after 5 days.
Text: as §1
[…] Seedlings are allowed to grow for six days. […] Number of alive insects are counted and percentage of dead calculated.

Data set [7] deals with Frankliniella occidentalis (Western Flower Thrips). Put plainly: Example B12: activity against Frankliniella occidentalis, sprayed bean plants, comparison with prior art. It counts as in vivo. The following applies: for inhibition at 12.5 ppm / inhibition at 25 ppm / inhibition at 50 ppm: Frankliniella occidentalis, 288 h, reduction of treated population vs non treated, read-out: Activity (%) after 12 days. Here is the method: Activity Against Frankliniella occidentalis (Western Flower Thrips)
Bean plants are treated in a spray chamber with diluted test solutions. After drying they are infested with mixed population. 12 days after the infestation, samples are checked for reduction of treated population and compared to the non treated population.

In data set [8] the test system is Thrips tabaci (Onion Thrips). Kind of data set: Example B7: activity against Thrips tabaci, sunflower leaf discs. The format is in vivo. Conditions: foliar, 144 h. Here is the method: Activity Against Thrips tabaci (Onion Thrips)
Sunflower leaf discs are placed on agar in a 24-well microtiter plate and sprayed with test solutions. After drying, the leaf discs are infested with a thrips population of mixed ages. After an incubation period of 6 days, samples are checked for mortality and special effects (e.g. phytotoxicity).

In data set [9] the test system is Mvzus persicae (Green Peach Aphid). Kind of data set: Example B5: activity against Myzus persicae (contact), sunflower leaf discs. It counts as in vivo. Conditions: foliar, 144 h. Here is the method:
Activity Against Mvzus persicae (Green Peach Aphid): (Contact)
Sunflower leaf discs are placed on agar in a 24-well microtiter plate and sprayed with test solutions. After drying, the leaf discs are infested with an aphid population of mixed ages. After an incubation period of 6 DAT, samples are checked for mortality and special effects (e.g. phytotoxicity).

Data set [10] relates to Cydia pomonella (Codling Moth). Kind of data set: Example B10: activity against Cydia pomonella, sprayed diet cubes. Conditions: 336 h. The format is in vivo. Here is the method: Activity Against Cydia pomonella (Codling Moth)
Standard Cydia diet cubes (1.5 cm width) are pierced with a tooth-pick and are immersed in liquid paraffin (ca. 80° C.). After the paraffin coat has hardened, an aqueous emulsion containing 12.5 ppm of active ingredient is applied using a De Vilbis sprayer (25 ml, 1 bar). After the spray coating has dried, the cubes are put into plastic containers which are then populated with two freshly hatched Cydia pomonella (1st instar). The containers are then closed with a plastic cap. After 14 days incubation at 26° C. and 40-60% relative humidity, the survival rate of the caterpillars as well as their growth regulation is determined.

The test system of data set [11] is Myzus persicae (Green Peach Aphid). Kind of data set: Example B6: activity against Myzus persicae (systemic), pea seedling roots in test solution. The format is in vivo. The following applies: 144 h. From the text:
Activity Against Myzus persicae (Green Peach Aphid): (Systemic)
Roots of pea seedlings, infested with an aphid population of mixed ages, are placed directly in the test solutions. 6 days after introduction, samples are checked for mortality and special effects on the plant.

[12] abbreviates: 12.5 ppm in water, systemic via maize seedlings, one replicate, read-out: mortality.
Setting [13] is: 200 ppm, 4 days incubation, eggs on artificial diet, read-out: mortality.
The mark [14] stands for this setting: 200 ppm, 5 days incubation, L2 larvae, read-out: mortality.
Setting [15] is: 200 ppm, 3 days after treatment, L1 larvae on cotton leaf discs, read-out: mortality.

As usually defined, the mortality is the share of the test organisms that died. In data set [1], `Cc1cc(I)cc(C(=O)NC(C)(C#N)C2CC2)c1NC(=O)c1cc(Br)nn1-c1ncccc1Cl` (stereo not shown) [Compound T1.1.106] displayed a mortality at 12.5 ppm greater than 80%. The mortality at 200 ppm in data set [2], in data set [4] and in [5] was greater than 80% in each case. In addition, in data set [3], the pest or weed control at 200 ppm was greater than 80%.

As usually defined, the melting point is the temperature, or range, at which the solid turns liquid. For the molecule `Cc1cc(I)cc(C(=O)NC(C)(C#N)C2CC2)c1NC(=O)c1cc(OC(F)F)nn1-c1ncccc1Cl` (stereo not shown), the melting point is 203 to 204 °C.

As to `Cc1cc(Cl)cc(C(=O)NC(C#N)C2CC2)c1NC(=O)c1cc(C(F)(F)F)nn1-c1ncccc1Cl` (stereo not shown) [A.1.346, reference compound], in data set [6], the mortality at 0.0125 ppm came to 0% and the mortality at 0.05 ppm turned out to be 100%. In data set [7], the inhibition at 12.5 ppm was determined as 0%, the inhibition at 25 ppm came out at 0% and the inhibition at 50 ppm came out at 0%.

Consider `Cc1cc(Cl)cc(C(=O)NC(C)(C#N)C2CC2)c1NC(=O)c1cc(C(F)(F)F)nn1-c1ncccc1Cl` (stereo not shown) [Compound T1.1.49, 2-(3-chloro-pyridin-2-yl)-5-trifluoromethyl-2H-pyrazole-3-carboxylic acid {4-chloro-2-[(cyano-cyclopropyl-methyl-methyl)-carbamoyl]-6-methyl-phenyl}-amide], for which the mortality at 12.5 ppm in data set [1] and in data set [10] was greater than 80% throughout. Moreover, the mortality at 200 ppm in data set [2], in data set [8], in data set [9], in [4] and in data set [5] was greater than 80% throughout. In addition, the pest or weed control at 200 ppm in [3] is greater than 80%. Besides, the mortality at 0.0125 ppm in data set [6] came to 93%. Further, in data set [6], the mortality at 0.05 ppm is 100%. Also, the “insecticidal action compared with the compound from the state of the art (A.1.346)” value in [6] (Table B11) was “substantially better insecticidal action”; in [7] (Table B12, 50, 25 and 12.5 ppm), “substantially better insecticidal action”. The inhibition at 12.5 ppm in [7] was determined as 75%. In data set [7], the inhibition at 25 ppm turned out to be 85%. Moreover, the inhibition at 50 ppm in data set [7] was found to be 90%.

`Cc1cc(Cl)cc(C(=O)NC(C)(C#N)C2CC2)c1NC(=O)c1cc(Cl)nn1-c1ncccc1Cl` (stereo not shown) [Compound T1.1.51]: the mortality at 12.5 ppm in data set [1] and in [10] was greater than 80% each time. Besides, the mortality at 200 ppm in [2], in data set [8], in data set [4] and in [5] was greater than 80% throughout. In data set [3], the pest or weed control at 200 ppm was greater than 80%.

Take `Cc1cc(I)cc(C(=O)NC(C)(C#N)C2CC2)c1NC(=O)c1cc(C(F)F)nn1-c1ncccc1Cl` (stereo not shown) [Compound T1.1.108]: the mortality at 200 ppm in data set [2], in data set [8], in [4] and in [5] was greater than 80% in each case. Also, the pest or weed control at 200 ppm in data set [3] is greater than 80%.

Take `Cc1cc(Cl)cc(C(=O)NC(C)(C#N)C2CC2)c1NC(=O)c1cc(C(F)F)nn1-c1ncccc1Cl` (stereo not shown) [Compound T1.1.52]: the mortality at 12.5 ppm in [1], in data set [10] and in data set [11] was greater than 80% throughout. For the same molecule, the mortality at 200 ppm in data set [2], in data set [8], in [9], in data set [4] and in [5] was greater than 80% throughout. In addition, the pest or weed control at 200 ppm in data set [3] is greater than 80%.

For `COc1cc(C(=O)Nc2c(C)cc(I)cc2C(=O)NC(C)(C#N)C2CC2)n(-c2ncccc2Cl)n1` (stereo not shown) [Compound T1.1.111], the mortality at 12.5 ppm in [1] (setting [12]) was greater than 80%. Also, the mortality at 200 ppm in data set [2] (setting [13]), in data set [4] (setting [14]) and in [5] (setting [15]) was greater than 80% in each case.

Take `Cc1cc(Cl)cc(C(=O)NC(C)(C#N)C2CC2)c1NC(=O)c1cc(Br)nn1-c1ncccc1Cl` (stereo not shown) [Compound T1.1.50]: the mortality at 12.5 ppm in [1], in data set [10] and in data set [11] was greater than 80% each time. Further, the mortality at 200 ppm in [2], in [8], in data set [4] and in [5] was greater than 80% in each case. Moreover, in [3], the pest or weed control at 200 ppm is greater than 80%.

As to `COc1cc(C(=O)Nc2c(C)cc(Cl)cc2C(=O)NC(C)(C#N)C2CC2)n(-c2ncccc2Cl)n1` (stereo not shown) [Compound T1.1.55], the mortality at 12.5 ppm in data set [1] and in data set [11] was greater than 80% each time. The mortality at 200 ppm in data set [2], in data set [4] and in data set [5] was greater than 80% each time. For the same molecule, the pest or weed control at 200 ppm in data set [3] is greater than 80%.

As for `Cc1cc(Cl)cc(C(=O)NC(C)(C#N)C2CC2)c1NC(=O)c1cc(C(F)(F)F)nn1-c1ncccc1Cl` (single isomer, unassigned) [Compound T1.1.49a], the mortality at 12.5 ppm was greater than 80% in [1] (setting [12]) and greater than 80% in [10] (12.5 ppm, 14 days incubation at 26° C., read-out: mortality). Further, the mortality at 200 ppm in [2] (setting [13]) is greater than 80%; in [8] (200 ppm, 6 days incubation, mixed ages, read-out: mortality) it was greater than 80%; in data set [4] (setting [14]), greater than 80%; in data set [5] (setting [15]), greater than 80%.

As to `Cc1cc(I)cc(C(=O)NC(C)(C#N)C2CC2)c1NC(=O)c1cc(C(F)(F)F)nn1-c1ncccc1Cl` (stereo not shown) [Compound T1.1.105], the mortality at 12.5 ppm in data set [1] and in [10] was greater than 80% each time. The mortality at 200 ppm in data set [2], in [8], in [9], in data set [4] and in [5] was greater than 80% in each case. Also, the pest or weed control at 200 ppm in data set [3] is greater than 80%.

On to `Cc1cc(Cl)cc(C(=O)NC(C)(C#N)C2CC2)c1NC(=O)c1cc(OCC(F)(F)F)nn1-c1ncccc1Cl` (stereo not shown) [Compound T1.1.53], for which the mortality at 12.5 ppm in data set [1] and in data set [10] was greater than 80% each time. In addition, the mortality at 200 ppm in data set [2], in data set [4] and in data set [5] was greater than 80% throughout. Moreover, in data set [3], the pest or weed control at 200 ppm was greater than 80%.

With `Cc1cc(Cl)cc(C(=O)NC(C)(C#N)C2CC2)c1NC(=O)c1cc(OC(F)F)nn1-c1ncccc1Cl` (stereo not shown), the melting point lay within 197 to 198 °C.

Turning to `Cc1cc(Cl)cc(C(=O)NC(C)(C#N)C2CCC2)c1NC(=O)c1cc(C(F)(F)F)nn1-c1ncccc1Cl` (stereo not shown) [Compound T2.1.49], the mortality at 200 ppm in data set [2], in data set [4] and in data set [5] was greater than 80% in each case. Besides, the pest or weed control at 200 ppm in [3] is greater than 80%. Besides, the mortality at 12.5 ppm in data set [11] was greater than 80%.
